From paper PMC3145970, “Specific CLK Inhibitors from a Novel Chemotype for Regulation of Alternative Splicing” (Chemistry & Biology, 2011)
Where two headings read alike, the source gives them in different places.

Columns and labels:
Test in all cases: Thermal stability shift assay
Format in all cases: binding
[1] = target: CaMKK1 (Homo sapiens, UniProt Q8N5S9); settings: read-out: Tm shift CaMKK1
How it was run: (§1)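 Each value reflects thermal unfolding of 2 μM protein with 10 μM inhibitor, detected by SyproOrange (1:1000 dilution) fluorescence in 10 mM HEPES pH 7.5, 500 mM NaCl.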

[2] = target: T1, RSK2~C (Homo sapiens, UniProt P51812); settings: read-out: Tm shift RSK2~C
T1 construct: RSK2~C 2.7 12.3 2.0 1.0 1.3 -0.2 0.4
How it was run: as §1

[3] = target: T2, BMX (Homo sapiens, UniProt P51813); settings: read-out: Tm shift BMX
T2 sequence (P51813 1-675): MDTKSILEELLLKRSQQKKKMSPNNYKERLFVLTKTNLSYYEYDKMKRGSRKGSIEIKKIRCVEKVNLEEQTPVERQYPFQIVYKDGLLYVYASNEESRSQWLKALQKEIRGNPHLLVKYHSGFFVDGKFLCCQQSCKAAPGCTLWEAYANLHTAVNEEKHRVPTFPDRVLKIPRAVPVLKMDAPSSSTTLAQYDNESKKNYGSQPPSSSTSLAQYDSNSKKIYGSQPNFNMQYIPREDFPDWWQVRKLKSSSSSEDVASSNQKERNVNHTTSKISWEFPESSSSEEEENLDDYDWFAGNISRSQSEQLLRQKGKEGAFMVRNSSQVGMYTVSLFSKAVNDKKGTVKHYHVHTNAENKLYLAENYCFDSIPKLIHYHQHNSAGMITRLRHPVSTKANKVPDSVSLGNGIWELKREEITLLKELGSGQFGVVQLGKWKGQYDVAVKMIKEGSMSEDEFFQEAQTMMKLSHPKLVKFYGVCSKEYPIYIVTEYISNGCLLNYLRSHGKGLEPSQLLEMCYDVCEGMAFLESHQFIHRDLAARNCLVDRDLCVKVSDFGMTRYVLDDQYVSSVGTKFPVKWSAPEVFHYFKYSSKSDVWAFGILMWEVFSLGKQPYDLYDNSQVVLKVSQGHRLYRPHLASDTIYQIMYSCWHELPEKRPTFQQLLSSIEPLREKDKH
How it was run: as §1

[4] = target: T3, p38d (Homo sapiens, UniProt O15264); settings: read-out: Tm shift p38d
T3 construct: purchased in-house (SGC Oxford thermal shift panel)
T3 sequence (O15264 1-365): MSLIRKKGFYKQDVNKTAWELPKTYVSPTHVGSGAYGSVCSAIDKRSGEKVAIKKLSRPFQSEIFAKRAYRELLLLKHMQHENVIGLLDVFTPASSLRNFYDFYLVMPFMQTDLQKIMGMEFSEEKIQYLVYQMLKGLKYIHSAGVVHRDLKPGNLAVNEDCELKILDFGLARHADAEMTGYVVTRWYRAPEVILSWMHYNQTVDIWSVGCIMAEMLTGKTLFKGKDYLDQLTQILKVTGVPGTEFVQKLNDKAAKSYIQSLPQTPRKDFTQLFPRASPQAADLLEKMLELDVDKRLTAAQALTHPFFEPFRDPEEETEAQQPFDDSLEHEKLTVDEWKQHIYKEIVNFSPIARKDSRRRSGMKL
How it was run: as §1

[5] = target: T4, MSSK1 (Homo sapiens, UniProt Q9UPE1); settings: read-out: Tm shift MSSK1
T4 construct: purchased in-house (SGC Oxford thermal shift panel)
How it was run: as §1

[6] = target: RSK4 (Homo sapiens, UniProt Q9UK32); settings: read-out: Tm shift RSK4
How it was run: as §1

[7] = target: YSK1 (Homo sapiens, UniProt O00506); settings: read-out: Tm shift YSK1
How it was run: as §1

[8] = target: T5, Haspin (Homo sapiens, UniProt Q8TF76); settings: read-out: Tm shift Haspin
T5 construct: purchased in-house (SGC Oxford thermal shift panel)
T5 sequence (Q8TF76 1-798): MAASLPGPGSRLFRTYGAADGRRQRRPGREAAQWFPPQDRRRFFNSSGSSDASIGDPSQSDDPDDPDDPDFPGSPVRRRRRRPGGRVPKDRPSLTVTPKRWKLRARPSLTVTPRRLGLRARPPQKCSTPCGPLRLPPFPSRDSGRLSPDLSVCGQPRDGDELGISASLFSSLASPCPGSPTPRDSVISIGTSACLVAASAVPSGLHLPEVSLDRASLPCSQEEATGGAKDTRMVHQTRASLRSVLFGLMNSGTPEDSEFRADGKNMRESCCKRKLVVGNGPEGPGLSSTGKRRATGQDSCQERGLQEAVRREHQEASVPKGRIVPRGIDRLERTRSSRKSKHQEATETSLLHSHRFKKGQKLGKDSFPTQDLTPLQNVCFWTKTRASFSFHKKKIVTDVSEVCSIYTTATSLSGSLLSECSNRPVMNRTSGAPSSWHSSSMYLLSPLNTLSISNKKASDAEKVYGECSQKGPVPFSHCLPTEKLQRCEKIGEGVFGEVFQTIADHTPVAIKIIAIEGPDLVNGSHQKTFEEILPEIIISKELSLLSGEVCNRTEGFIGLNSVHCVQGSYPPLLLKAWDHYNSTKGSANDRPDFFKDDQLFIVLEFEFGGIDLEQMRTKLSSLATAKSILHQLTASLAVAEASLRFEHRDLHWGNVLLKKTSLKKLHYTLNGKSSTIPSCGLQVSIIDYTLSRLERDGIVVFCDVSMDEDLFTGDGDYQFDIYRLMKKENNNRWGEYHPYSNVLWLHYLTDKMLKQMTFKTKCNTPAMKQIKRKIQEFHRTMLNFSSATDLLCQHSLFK
How it was run: as §1

[9] = target: T6, RSK1-C (Homo sapiens, UniProt Q15418); settings: read-out: Tm shift RSK1-C
T6 construct: RSK1-C 0.7 4.0 1.6 1.9 1.9 0.3 0.9
How it was run: as §1

[10] = target: T7, PRKX (Homo sapiens, UniProt P51817); settings: read-out: Tm shift PRKX
T7 sequence (P51817 1-358): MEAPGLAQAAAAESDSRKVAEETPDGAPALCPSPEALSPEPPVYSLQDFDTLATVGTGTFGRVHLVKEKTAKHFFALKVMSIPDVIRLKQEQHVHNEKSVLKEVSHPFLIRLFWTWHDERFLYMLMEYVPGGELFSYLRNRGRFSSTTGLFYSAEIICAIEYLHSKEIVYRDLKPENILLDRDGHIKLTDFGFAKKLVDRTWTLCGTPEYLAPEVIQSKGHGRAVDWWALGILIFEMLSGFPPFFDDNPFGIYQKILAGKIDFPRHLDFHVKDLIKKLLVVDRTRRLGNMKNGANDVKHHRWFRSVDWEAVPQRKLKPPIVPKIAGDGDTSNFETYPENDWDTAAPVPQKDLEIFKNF
How it was run: as §1

Sequence of YSK1 (O00506 whole entry): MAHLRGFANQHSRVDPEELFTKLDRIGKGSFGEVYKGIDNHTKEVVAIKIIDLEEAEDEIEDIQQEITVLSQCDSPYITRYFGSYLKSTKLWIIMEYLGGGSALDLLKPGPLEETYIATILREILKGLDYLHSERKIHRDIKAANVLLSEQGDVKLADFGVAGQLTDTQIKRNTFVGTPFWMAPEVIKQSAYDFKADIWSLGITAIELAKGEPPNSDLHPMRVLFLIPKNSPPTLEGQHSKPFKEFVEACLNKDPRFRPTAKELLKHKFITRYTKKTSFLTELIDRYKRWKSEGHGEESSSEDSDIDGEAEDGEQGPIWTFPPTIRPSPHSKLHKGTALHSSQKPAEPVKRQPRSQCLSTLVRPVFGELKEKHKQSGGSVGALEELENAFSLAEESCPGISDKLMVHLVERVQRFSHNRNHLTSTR
Sequence of CaMKK1 (Q8N5S9 whole entry): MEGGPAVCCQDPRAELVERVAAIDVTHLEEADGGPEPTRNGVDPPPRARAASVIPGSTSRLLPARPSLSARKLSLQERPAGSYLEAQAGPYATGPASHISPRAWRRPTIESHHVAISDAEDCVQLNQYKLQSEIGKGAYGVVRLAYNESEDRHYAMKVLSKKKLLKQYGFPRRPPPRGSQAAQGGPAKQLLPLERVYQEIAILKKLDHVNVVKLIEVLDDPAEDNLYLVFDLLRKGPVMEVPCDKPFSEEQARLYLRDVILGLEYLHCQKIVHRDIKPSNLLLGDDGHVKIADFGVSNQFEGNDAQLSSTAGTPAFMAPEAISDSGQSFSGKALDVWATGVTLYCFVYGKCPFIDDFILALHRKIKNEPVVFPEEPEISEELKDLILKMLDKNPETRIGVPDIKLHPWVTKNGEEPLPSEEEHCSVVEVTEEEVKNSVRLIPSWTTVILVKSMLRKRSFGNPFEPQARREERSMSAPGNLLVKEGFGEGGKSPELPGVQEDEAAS
Sequence of RSK4 (Q9UK32 whole entry): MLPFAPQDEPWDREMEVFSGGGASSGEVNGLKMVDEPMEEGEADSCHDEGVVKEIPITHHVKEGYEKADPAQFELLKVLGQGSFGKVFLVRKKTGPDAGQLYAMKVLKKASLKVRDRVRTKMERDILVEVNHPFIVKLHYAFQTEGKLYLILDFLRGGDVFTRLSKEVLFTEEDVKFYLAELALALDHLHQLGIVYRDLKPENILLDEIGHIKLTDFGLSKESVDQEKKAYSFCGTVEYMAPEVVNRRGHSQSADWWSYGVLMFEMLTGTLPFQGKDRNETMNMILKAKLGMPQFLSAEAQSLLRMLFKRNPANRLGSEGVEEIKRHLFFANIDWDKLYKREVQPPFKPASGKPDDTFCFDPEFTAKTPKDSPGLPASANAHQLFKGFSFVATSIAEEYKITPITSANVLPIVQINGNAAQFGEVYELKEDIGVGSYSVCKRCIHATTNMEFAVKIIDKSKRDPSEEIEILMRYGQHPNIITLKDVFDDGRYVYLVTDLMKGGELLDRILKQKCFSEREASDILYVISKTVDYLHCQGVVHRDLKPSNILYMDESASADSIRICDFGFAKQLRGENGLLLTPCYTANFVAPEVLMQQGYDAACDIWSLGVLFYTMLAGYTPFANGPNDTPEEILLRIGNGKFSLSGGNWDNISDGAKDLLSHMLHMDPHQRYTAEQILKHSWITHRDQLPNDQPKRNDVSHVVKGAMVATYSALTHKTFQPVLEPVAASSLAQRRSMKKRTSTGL
T1 sequence (P51812 422-679 limits assumed): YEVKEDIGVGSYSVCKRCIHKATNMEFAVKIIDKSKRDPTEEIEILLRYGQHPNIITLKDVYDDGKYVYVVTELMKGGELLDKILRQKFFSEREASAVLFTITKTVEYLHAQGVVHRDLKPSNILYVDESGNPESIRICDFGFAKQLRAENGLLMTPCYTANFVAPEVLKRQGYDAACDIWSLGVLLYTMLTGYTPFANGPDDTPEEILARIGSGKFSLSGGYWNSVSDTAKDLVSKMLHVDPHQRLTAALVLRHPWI
T4 sequence (Q9UPE1 whole entry): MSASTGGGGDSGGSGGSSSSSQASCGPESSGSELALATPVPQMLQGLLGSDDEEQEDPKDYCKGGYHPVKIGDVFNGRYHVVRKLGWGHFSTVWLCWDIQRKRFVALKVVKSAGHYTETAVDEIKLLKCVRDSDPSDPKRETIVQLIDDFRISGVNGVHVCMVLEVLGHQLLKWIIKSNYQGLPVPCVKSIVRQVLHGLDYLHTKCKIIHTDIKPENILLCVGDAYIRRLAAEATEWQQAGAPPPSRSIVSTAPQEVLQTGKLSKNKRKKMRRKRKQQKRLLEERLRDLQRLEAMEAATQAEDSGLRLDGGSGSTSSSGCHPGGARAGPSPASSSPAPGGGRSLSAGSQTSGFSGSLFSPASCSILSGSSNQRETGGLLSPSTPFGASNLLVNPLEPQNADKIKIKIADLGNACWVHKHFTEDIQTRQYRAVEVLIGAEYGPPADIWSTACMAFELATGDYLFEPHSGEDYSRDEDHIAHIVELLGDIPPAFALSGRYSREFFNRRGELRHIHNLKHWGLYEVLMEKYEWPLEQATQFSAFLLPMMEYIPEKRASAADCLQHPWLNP
T6 sequence (Q15418 418-675 limits assumed): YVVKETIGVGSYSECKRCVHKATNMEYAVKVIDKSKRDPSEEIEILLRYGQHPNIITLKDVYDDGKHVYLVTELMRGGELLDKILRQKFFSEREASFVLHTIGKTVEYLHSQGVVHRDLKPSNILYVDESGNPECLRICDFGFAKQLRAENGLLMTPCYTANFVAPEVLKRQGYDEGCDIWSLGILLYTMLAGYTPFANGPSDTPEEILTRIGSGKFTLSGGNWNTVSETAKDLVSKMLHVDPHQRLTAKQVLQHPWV

In the case of `CCOC(=O)c1c(/C(C#N)=C\N)c2ccc(Cl)c(Cl)c2n1C` [KH-CB19, (E)-Ethyl 3-(2-Amino-1-Cyanovinyl)-6,7-Dichloro-1-Methyl-1H-Indole-2-Carboxylate], the ΔTm at 10 µM [1] is reported as -0.1 °C, the ΔTm at 10 µM [2] is reported as 2 °C and the ΔTm at 10 µM [3] is reported as 0.2 °C. It also gave a ΔTm at 10 µM [4] of 0.3 °C, a ΔTm at 10 µM [5] of 0.2 °C and a ΔTm at 10 µM [6] of 1.6 °C. The ΔTm at 10 µM [7] was -0.1 °C, the ΔTm at 10 µM [8] was 2.1 °C and the ΔTm at 10 µM [9] was 1.6 °C. The ΔTm at 10 µM [10] was 0.5 °C.

Work on `CCOC(=O)c1c(C(C#N)=CN)c2ccc(Cl)c(Cl)c2n1C` (mixture of isomers) [KH-CB20, (E/Z)-Ethyl 3-(2-Amino-1-Cyanovinyl)-6,7-Dichloro-1-Methyl-1H-Indole-2-Carboxylate] yielded a ΔTm at 10 µM [1] of 0.6 °C, a ΔTm at 10 µM [2] of 1 °C and a ΔTm at 10 µM [3] of 0.2 °C. The ΔTm at 10 µM [4] was -0.3 °C, the ΔTm at 10 µM [5] was 0.5 °C and the ΔTm at 10 µM [6] was 1.1 °C. For the same molecule, the ΔTm at 10 µM [7] was 0.1 °C, the ΔTm at 10 µM [8] was 1.8 °C and the ΔTm at 10 µM [9] was 1.9 °C. It also gave a ΔTm at 10 µM [10] of 0.4 °C.

With `NC1=NC(=O)/C(=C2\CCNC(=O)c3[nH]c(Br)cc32)N1` [Hymenialdisine, hymenialdisine, reference compound] the ΔTm at 10 µM ([1]; inhibitor 10 μM) was 0.2 °C, the ΔTm at 10 µM ([2]; inhibitor 10 μM) was 2.7 °C and the ΔTm at 10 µM ([3]; inhibitor 10 μM) was -0.1 °C. For the same molecule, the ΔTm at 10 µM ([4]; inhibitor 10 μM) was -0.1 °C, the ΔTm at 10 µM ([5]; inhibitor 10 μM) was 0.3 °C and the ΔTm at 10 µM ([6]; inhibitor 10 μM) was 1.7 °C. It also gave a ΔTm at 10 µM ([7]; inhibitor 10 μM) of 1.7 °C, a ΔTm at 10 µM ([8]; inhibitor 10 μM) of 3.9 °C and a ΔTm at 10 µM ([9]; inhibitor 10 μM) of 0.7 °C. For the same molecule, the ΔTm at 10 µM ([10]; inhibitor 10 μM) was 0.3 °C.

Work on `CCOC(=O)c1c(C(C#N)=CN(C)C)c2ccc(Cl)c(Cl)c2n1C` (mixture of isomers) [compound 2, (E/Z)-Ethyl 6,7-Dichloro-3-[1-Cyano-2-(Dimethylamino)Vinyl]-1-Methyl-1H-Indole-2-Carboxylate] yielded a ΔTm at 10 µM ([1]; inhibitor 10 μM) of 0.3 °C, a ΔTm at 10 µM ([2]; inhibitor 10 μM) of -0.2 °C and a ΔTm at 10 µM ([3]; inhibitor 10 μM) of -0.2 °C. For the same molecule, the ΔTm at 10 µM ([4]; inhibitor 10 μM) was 0.4 °C, the ΔTm at 10 µM ([5]; inhibitor 10 μM) was 0.3 °C and the ΔTm at 10 µM ([6]; inhibitor 10 μM) was -0.2 °C. For the same molecule, the ΔTm at 10 µM ([7]; inhibitor 10 μM) was 0.6 °C, the ΔTm at 10 µM ([8]; inhibitor 10 μM) was 0.2 °C and the ΔTm at 10 µM ([9]; inhibitor 10 μM) was 0.3 °C. It also gave a ΔTm at 10 µM ([10]; inhibitor 10 μM) of 0.3 °C.

With `Cn1c2c(Cl)c(Cl)ccc2c2c(C#N)c[nH]c(=O)c21` [compound 3, 7,8-Dichloro-9-Methyl-1-Oxo-2,9-Dihydro-1H-Pyrido[3,4-b]Indole-4-Carbonitrile] the ΔTm at 10 µM ([1]; inhibitor 10 μM) was 0.4 °C, the ΔTm at 10 µM ([2]; inhibitor 10 μM) was 1.3 °C and the ΔTm at 10 µM ([3]; inhibitor 10 μM) was -0.1 °C. The ΔTm at 10 µM ([4]; inhibitor 10 μM) was 0.3 °C, the ΔTm at 10 µM ([5]; inhibitor 10 μM) was 0.3 °C and the ΔTm at 10 µM ([6]; inhibitor 10 μM) was 1.3 °C. For the same molecule, the ΔTm at 10 µM ([7]; inhibitor 10 μM) was 0.2 °C, the ΔTm at 10 µM ([8]; inhibitor 10 μM) was 2.1 °C and the ΔTm at 10 µM ([9]; inhibitor 10 μM) was 1.9 °C. It also gave a ΔTm at 10 µM ([10]; inhibitor 10 μM) of 0.5 °C.
